Results taken from publication PMC7180572, “5-Alkylamino-N-phenylpyrazine-2-carboxamides: Design, Preparation, and Antimycobacterial Evaluation” (Molecules, 2020).
Values after ≈ are worked out from the molar mass of the structure shown. Where two headings read alike, the source gives them in different places.

What was measured:
[1] = tested on: Mycobacterium tuberculosis H37Ra ITM-M006710 (ATCC 9431); assay: Microdilution broth, modified Microplate Alamar Blue Assay, whole cell growth inhibition; type: cell-based; settings: Mycobacterium tuberculosis; in vitro, Middlebrook 7H9 broth, resazurin; read-out: MIC Mtb H37Ra
[2] = tested on: Mycobacterium aurum DSM 43999 (ATCC 23366); assay: as above; type: cell-based; settings: Mycolicibacterium aurum, read-out: MIC Mycobacterium aurum
[3] = tested on: Mycobacterium smegmatis DSM 43465 (ATCC 607); assay: as above; type: cell-based; settings: Mycolicibacterium smegmatis, read-out: MIC Mycobacterium smegmatis
HepG2 cells = assay: HepG2 cytotoxicity, CellTiter 96 (MTS) assay; type: cell-based, human; settings: for IC50: Homo sapiens, HepG2, 24 h, read-out: HepG2 IC50
[4] = tested on: Staphylococcus aureus spp.aureus ATCC 29213, CCM 4223; assay: Antibacterial microdilution broth method (EUCAST); type: cell-based; settings: read-out: MIC SA
[5] = tested on: Staphylococcus aureus methicillin resistant ATCC 43300, CCM 4750; assay: microbe, parasite or virus in culture; type: cell-based; settings: ATCC 43300 / CCM 4750 / MRSA, read-out: MIC MRSA
[6] = tested on: Staphylococcus epidermidis ATCC 12228, CCM 4418; assay: Antibacterial microdilution broth method (EUCAST); type: cell-based; settings: read-out: MIC SE
[7] = tested on: Enterococcus faecalis ATCC 29212, CCM 4224; assay: Antibacterial microdilution broth method (EUCAST); type: cell-based; settings: read-out: MIC EF
[8] = tested on: Escherichia coli ATCC 25922, CCM 3954; assay: Antibacterial microdilution broth method (EUCAST); type: cell-based; settings: read-out: MIC EC
[9] = tested on: Acinetobacter baumanii ATCC 19606, DSM 30007; assay: Antibacterial microdilution broth method (EUCAST); type: cell-based; settings: Acinetobacter baumannii
[10] = tested on: Pseudomonas aeruginosa ATCC 27853, CCM 3955; assay: Antibacterial microdilution broth method (EUCAST); type: cell-based; settings: read-out: MIC PA
[11] = tested on: Candida albicans ATCC 24433, CCM 8320; assay: Antifungal microdilution broth method (EUCAST); type: cell-based
[12] = tested on: Candida krusei ATCC 6258, CCM 8271; assay: Antifungal microdilution broth method (EUCAST); type: cell-based; settings: Pichia kudriavzevii
[13] = tested on: Candida parapsilosis ATCC 22019, CCM 8260; assay: Antifungal microdilution broth method (EUCAST); type: cell-based; settings: Lodderomyces parapsilosis
[14] = tested on: Candida tropicalis ATCC 750, CCM 8264; assay: Antifungal microdilution broth method (EUCAST); type: cell-based; settings: read-out: MIC CT
[15] = tested on: Aspergillus fumigatus ATCC 204305; assay: Antifungal microdilution broth method (EUCAST); type: cell-based; settings: read-out: MIC AF
[16] = tested on: Aspergillus flavus CCM 8363; assay: Antifungal microdilution broth method (EUCAST); type: cell-based; settings: read-out: MIC AFla
[17] = tested on: Absidia corymbifera CCM 8077 (Lichtheimia corymbifera); assay: Antifungal microdilution broth method (EUCAST); type: cell-based; settings: read-out: MIC AC
[18] = tested on: Trichophyton interdigitale ATCC 9533, CCM 8377; assay: Antifungal microdilution broth method (EUCAST); type: cell-based; settings: read-out: MIC TI
[19] = tested on: Klebsiella pneumoniae ATCC 10031, CCM 4415; assay: Antibacterial microdilution broth method (EUCAST)

## CCCCCCCCNc1cnc(C(=O)Nc2cccc(C(F)(F)F)c2)cn1 [Compound 1f, 5-(Octylamino)-N-(3-(trifluoromethyl)phenyl)pyrazine-2-carboxamide]
[1]
  MIC: ≥ 500 µg/mL
[2]
  MIC: ≥ 500 µg/mL
[3]
  MIC: ≥ 500 µg/mL
HepG2 cells
  IC50: 66.2 µM
[4]; 24 h
  MIC: > 500 µM
[4]; 48 h
  MIC: > 500 µM
[5]; 24 h
  MIC: > 500 µM
[5]; 48 h
  MIC: > 500 µM
[6]; 24 h
  MIC: > 500 µM
[6]; 48 h
  MIC: > 500 µM
[7]; 24 h
  MIC: > 500 µM
[7]; 48 h
  MIC: > 500 µM
[8]; 24 h
  MIC: > 500 µM
[8]; 48 h
  MIC: > 500 µM
[9]; 24h
  MIC: > 500 µM
[9]; 48h
  MIC: > 500 µM
[10]; 72 h
  MIC: > 500 µM
[10]; 120 h
  MIC: > 500 µM
[11]; 24 h, read-out: MIC CA
  MIC: > 500 µM
[11]; 48 h, read-out: MIC CA
  MIC: > 500 µM
[12]; 24 h, read-out: MIC CK
  MIC: > 500 µM
[12]; 48 h, read-out: MIC CK
  MIC: > 500 µM
[13]; 24 h, read-out: MIC CP
  MIC: > 500 µM
[13]; 48 h, read-out: MIC CP
  MIC: > 500 µM
[14]; 24 h
  MIC: > 500 µM
[14]; 48 h
  MIC: > 500 µM
[15]; ATCC204305, 24 h
  MIC: > 500 µM
[15]; ATCC204305, 48 h
  MIC: > 500 µM
[16]; CCM8363, 24 h
  MIC: > 500 µM
[16]; CCM8363, 48 h
  MIC: > 500 µM
[17]; CCM8077, 24 h
  MIC: > 500 µM
[17]; CCM8077, 48 h
  MIC: > 500 µM
[18]; 72 h
  MIC: > 500 µM
[18]; 120 h
  MIC: > 500 µM
other
  melting point: 135 to 136 °C
[19]; 24h
  MIC KP: > 500 µM
[19]; 48h
  MIC KP: > 500 µM

## CCCCCNc1cnc(C(=O)Nc2cccc(C(F)(F)F)c2)cn1 [Compound 1c, 5-(Pentylamino)-N-(3-(trifluoromethyl)phenyl)pyrazine-2-carboxamide]
[1]
  MIC: 3.13 µg/mL (≈ 8.88 µM)
[2]
  MIC: 3.13 µg/mL (≈ 8.88 µM)
[3]
  MIC: 1.56 µg/mL (≈ 4.43 µM)
HepG2 cells
  IC50: 18.9 µM
HepG2 cells; IC50 (HepG2)/MIC against Mtb H37Ra (in µM)
  SI, selectivity index: 2.13
[4]; 24 h
  MIC: > 500 µM
[4]; 48 h
  MIC: > 500 µM
[5]; 24 h
  MIC: > 500 µM
[5]; 48 h
  MIC: > 500 µM
[6]; 24 h
  MIC: > 500 µM
[6]; 48 h
  MIC: > 500 µM
[7]; 24 h
  MIC: > 500 µM
[7]; 48 h
  MIC: > 500 µM
[8]; 24 h
  MIC: > 500 µM
[8]; 48 h
  MIC: > 500 µM
[9]; 24h
  MIC: > 500 µM
[9]; 48h
  MIC: > 500 µM
[10]; 72 h
  MIC: > 500 µM
[10]; 120 h
  MIC: > 500 µM
[11]; 24 h, read-out: MIC CA
  MIC: > 125 µM
[11]; 48 h, read-out: MIC CA
  MIC: > 125 µM
[11]; read-out: MIC CA (Candida albicans)
  MIC: > 125 µM
[12]; 24 h, read-out: MIC CK
  MIC: 62.5 µM (≈ 22 µg/mL)
[12]; 48 h, read-out: MIC CK
  MIC: 62.5 µM (≈ 22 µg/mL)
[12]; read-out: MIC CK (Candida krusei)
  MIC: 62.5 µM (≈ 22 µg/mL)
[13]; 24 h, read-out: MIC CP
  MIC: 125 µM (≈ 44 µg/mL)
[13]; 48 h, read-out: MIC CP
  MIC: 125 µM (≈ 44 µg/mL)
[13]; read-out: MIC CP (Candida parapsilosis)
  MIC: 125 µM (≈ 44 µg/mL)
[14]; 24 h
  MIC: > 125 µM
[14]; 48 h
  MIC: > 125 µM
[15]; ATCC204305, 24 h
  MIC: > 125 µM
[15]; ATCC204305, 48 h
  MIC: > 125 µM
[16]; CCM8363, 24 h
  MIC: > 125 µM
[16]; CCM8363, 48 h
  MIC: > 125 µM
[17]; CCM8077, 24 h
  MIC: > 125 µM
[17]; CCM8077, 48 h
  MIC: > 125 µM
[18]; 72 h
  MIC: > 125 µM
[18]; 120 h
  MIC: > 125 µM
other
  melting point: 128 to 129 °C
[19]; 24h
  MIC KP: > 500 µM
[19]; 48h
  MIC KP: > 500 µM
